Values quoted from earlier work in article PMC9916969 (International Journal of Molecular Sciences, 2023).

Tests used:
[1] = target: T1, equine serum BChE (Equus caballus, UniProt P81908); conditions: compound 20 µM; cited from earlier work
T1 construct: human erythrocyte AChE, equine serum BChE, and porcine liver CES were used; purchased Sigma-Aldrich; host or cells: equine serum (tissue-derived)

[2] = cited from earlier work
[3] = tested on: porcine liver CES; conditions: compound 20 µM; cited from earlier work

T1 sequence (P81908 whole entry): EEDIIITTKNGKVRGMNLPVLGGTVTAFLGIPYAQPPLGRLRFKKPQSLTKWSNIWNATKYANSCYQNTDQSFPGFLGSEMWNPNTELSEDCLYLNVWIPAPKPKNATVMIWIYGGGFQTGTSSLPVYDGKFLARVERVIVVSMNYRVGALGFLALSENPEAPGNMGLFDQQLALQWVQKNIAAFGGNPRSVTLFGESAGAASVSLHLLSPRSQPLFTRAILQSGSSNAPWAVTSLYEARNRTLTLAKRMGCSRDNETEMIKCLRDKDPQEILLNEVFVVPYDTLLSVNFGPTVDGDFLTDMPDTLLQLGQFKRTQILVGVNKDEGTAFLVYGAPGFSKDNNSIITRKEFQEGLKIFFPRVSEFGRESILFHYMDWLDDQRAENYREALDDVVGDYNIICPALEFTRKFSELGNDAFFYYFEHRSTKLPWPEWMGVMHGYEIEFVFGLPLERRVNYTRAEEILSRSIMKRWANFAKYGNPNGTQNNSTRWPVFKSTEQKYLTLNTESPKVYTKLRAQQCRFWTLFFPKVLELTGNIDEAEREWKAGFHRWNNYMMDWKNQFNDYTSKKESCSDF

N-hexylsalicylamide
Inhibitory activity against BChE, inhibition at 20 µM [1]: 10.6 ± 0.8% | IC50 ([2]; 50% reduction of ABTS radical cation, read-out: ABTS^•+ Scavenging Activity, IC50): 46.5 ± 2.3 µM | ABTS^•+ Scavenging Activity, TEAC ([2]; Trolox equivalent): 0.39 ± 0.04 | Inhibitory activity against CES, inhibition at 20 µM [3]: 4.9 ± 1.0%
